Entries after “also recorded” stand apart in the source; their conditions may differ.
Tests used:
[1] = tested on: XBP1/CD138/CS1-specific CD8+ CTL stimulated with U266 MM cells; experiment: CFSE proliferation of XBP1/CD138/CS1-specific CTL in response to HLA-A2+ U266 MM cells; format: cell-based, human; conditions: CTL (N=5) treated with antibody, α-LAG3>α-PD-1, FIG. 6B
Method: (§1) XBP1/CD138/CS1-specific CTL were generated ex vivo after four cycles of weekly stimulation of HLA-A2^+ CD3^+ T lymphocytes (N=5) with a cocktail of four peptides containing heteroclitic XBP1 US184-192 (YISPWILAV (SEQ ID NO: 24)), heteroclitic XBP1 SP367-375 (YLFPQLISV (SEQ ID NO: 25)), native CD138260-268 (GLVGLIFAV (SEQ ID NO: 26)) and native CS1239-247 (SLFVLGLFL (SEQ ID NO: 27)), as described previously.
(§2) Proliferation of specific cell populations was evaluated using CFSE-based proliferation assays. In brief, MM patient BMMC, PBMC or XBP1/CD138/CS1-specific CTL were labeled with CFSE (Molecular Probes, Eugene, OR) and incubated with clinical grade checkpoint inhibitor (1 μg/ml) or immune agonist (1 μg/ml) in the presence of low dose (20 units) IL-2, with or without stimulation with irradiated MM cells (patients' cells, cell line) or MM lysates. After 4-7 days incubation, the cells were stained with LIVE/DEAD reagent and specific fluorochrome conjugated mAbs, washed, fixed in 2% paraformaldehyde, and acquired using a LSRII Fortessa™ flow cytometer.

[2] = tested on: PD1+ or LAG3+ T cells in BMMC from MM patients; experiment: Checkpoint (PD1, LAG3) expression on T cells in MM patient BMMC after modulator treatment, flow cytometry; format: cell-based, human; conditions: for upregulation / induction of other immune checkpoints: MM patient BMMC, among clinical grade checkpoint inhibitors and immune agonists evaluated (discussion)
Method: (§3) BMMC or PBMC from patients with MGUS, SMM, MM or healthy individuals were evaluated by flow cytometry analyses by staining cells with fluorochrome-conjugated mAb specific to each cell surface antigen for 30 minutes at room temperature, followed by LIVE/DEAD reagent staining to confirm viability. Regulatory T cells (Treg) were identified by cell surface staining (CD3, CD4, CD8, CD25), permeabilized using Foxp3/Transcription Factor Staining Buffer Set (eBioscience) and stained for intracellular FOXP3 expression. Myeloid-derived-suppressor cells (MDSC) were identified as G-type MDSC (CD11b+CD33+ HLA-DRlow/−CD14−CD15+) and M-type MDSC (CD11b+CD33+ HLA-DRlow/−CD14+CD15−). Cells were acquired using a BD Fortessa X-20 (BD Biosciences) flow cytometer, and the data was analyzed using DIVA™ v8.0 (BD) or FlowJo v10.0.7 (Tree star, Ashland, OR) software.
as §2

[3] = tested on: T cells in BMMC from MM patients; experiment: CFSE T cell proliferation in MM patient BMMC stimulated with irradiated tumor cells or tumor lysates; format: cell-based, human; conditions: BMMC (N=5), FIG. 9; for enhancement of tumor-lysate-induced T cell response: checkpoint inhibitors (anti-LAG3>anti-PD1) more than immune agonists
Method: (§4) Multiple myeloma (MM) cell lines U266, McCAR, HSB2, MMIS, RPMI8226, OPM2, H929, ANBL6, OCIMY5, AMO1 and KMS11 were obtained from ATCC (Manassas, VA). The T2 cell line, a human B and T cell hybrid expressing HLA-A2 molecules, was provided by Dr. J. Molldrem (University of Texas M. D. Anderson Cancer Center, Houston, TX). The cell lines were cultured in DMEM media supplemented with 10% fetal calf serum (FCS; BioWhittaker, Walkersville, MD), 100 IU/ml penicillin, and 100 μg/ml streptomycin (Gibco-Life Technologies, Rockville, MD). A mixture of ten MM cell lines was utilized to prepare tumor cell lysates by repeated (10×) cycles of freeze (−140° C.)/thaw (37° C.) or prepared as irradiated (20 Gy) whole tumor cells as sources of MM antigen stimulation.
as §2

[4] = tested on: T cells (CD3+, CD4+ Th, CD8+ Tc) in BMMC from MM patients; experiment: CFSE proliferation of T cells in MM patient BMMC treated with checkpoint inhibitor, immune agonist or LAG3-ligand antibody; format: cell-based, human; conditions: for CD3+ T cell proliferation: BMMC, newly diagnosed, relapsed or relapsed/refractory MM (N=10), vs untreated control
Source text: BM aspirates and peripheral blood (PB) samples were obtained from patients with MGUS [BM: N=5, PB: N=5] and SMM [BM: N=5, PB: N=5] and patients with MM (Newly Diagnosed [BM: N=15, PB: N=10], Relapsed [BM: N=12, PB: N=12], Relapsed/Refractory [BM: N=15, PB: N=12]) after informed consent, in accordance with the Declaration of Helsinki, and with approval by the Institutional Review Board at Dana-Farber Cancer Institute (Boston, MA). In addition, healthy individuals BM [N=5] or leukapheresis [N=5] products were purchased from either AllCells (Alameda, CA) or the Blood Donor Center at Boston Children's Hospital (Boston, MA), respectively. Mononuclear cells were isolated from BM (BMMC) or PB (PBMC) by standard density gradient centrifugation using Ficoll-Paque™ Plus (Amersham Pharmacia Biotech AB, Uppsala Sweden) and used in these studies.
as §2

[5] = tested on: CD4+ Treg in BMMC from MM patients; experiment: Treg proliferation in MM patient BMMC after modulator treatment; format: cell-based, human; conditions: for Treg proliferation: BMMC of MM patients (N=5), single agents compared, FIG. 5B
Method: as §3, §2

[6] = tested on: CD3+ T cells in PBMC from MM patients; experiment: CFSE T cell proliferation in MM patient PBMC with or without MM lysate stimulation; format: cell-based, human; conditions: newly diagnosed (N=6) or relapsed (N=3) MM, presence or absence of MM lysate, vs anti-PD1, anti-OX40, anti-GITR, FIG. 1C
Method: as §4
BM aspirates and peripheral blood (PB) samples were obtained from patients with MGUS [BM: N=5, PB: N=5] and SMM [BM: N=5, PB: N=5] and patients with MM (Newly Diagnosed [BM: N=15, PB: N=10], Relapsed [BM: N=12, PB: N=12], Relapsed/Refractory [BM: N=15, PB: N=12]) after informed consent, in accordance with the Declaration of Helsinki, and with approval by the Institutional Review Board at Dana-Farber Cancer Institute (Boston, MA). […]
Proliferation of specific cell populations was evaluated using CFSE-based proliferation assays. […]

U266 MM cells = experiment: CD107a degranulation and intracellular IFN-γ production of XBP1/CD138/CS1-specific CTL against MM; format: cell-based, human; conditions: CTL treated 1 μg/ml antibody 24 hours, then cultured with U266; FIG. 6C
Method: as §1
The anti-tumor activities of MM-specific CTL were measured by CD107a degranulation and IFN-γ production against MM. In brief, XBP1/CD138/CS1-specific CTL were treated with clinical grade anti-PD1 or anti-LAG3 (1 μg/ml) for 24 hours. The cells were then cultured with U266 MM cells in the presence of CD107a mAb. After 1-hour incubation, Brefeldin A (BD) and Monensin (BD) were added, and cultures were incubated for an additional 5 hours. Cells were harvested, washed in PBS, stained with LIVE/DEAD reagent, washed, incubated with fluorochrome conjugated mAb to identify T cells, allowing for assays of their functional activity against MM. After surface staining, cells were fixed/permeabilized, stained for Th1 cytokines, washed with Perm/Wash solution (BD), and analyzed by flow cytometry. MP-CTL specific CD107a degranulation and Th1 cytokine production were analyzed using DIVA™ v8.0 or FlowJo v10.0.7 software.

[7] = target: human Galectin-3 (GAL3) (human) (UniProt P17931); experiment: cell-based or functional assay
UniProt P17931, sequence (P17931 2-250 limits assumed): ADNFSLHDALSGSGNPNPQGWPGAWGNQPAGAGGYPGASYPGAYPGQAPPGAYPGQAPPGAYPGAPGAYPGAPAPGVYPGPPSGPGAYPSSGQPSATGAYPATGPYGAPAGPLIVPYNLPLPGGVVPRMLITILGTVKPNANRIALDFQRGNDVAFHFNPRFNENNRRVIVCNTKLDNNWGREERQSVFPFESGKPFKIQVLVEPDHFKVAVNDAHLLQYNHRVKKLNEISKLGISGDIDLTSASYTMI

[8] = BMMC of MM patients (N=10), FIG. 5A
[9] = BMMC of MM patients (N=10), antibody 1 μg/ml, low dose IL-2, FIG. 1B
[10] = antibody 1 μg/ml, low dose IL-2, FIG. 1B

Q: How did the “proliferation of total CD8+ T cells and Central Memory, Effector Memory, CD28+ and CD38+ CTL subsets” value [1] turn out when “anti-PD1: Clinical grade checkpoint inhibitor, anti-PD1 antibody Nivolumab, provided by Bristol-Myers Squibb” was run?
A: Its value is “significantly increase”.

Q: What about the “proliferation of T cells expressing an alternative immune checkpoint” value [2, 8] of the same substance?
A: The value was “to a greater extent than anti-LAG3 treatment”.

Q: What about the “upregulation of PD1 and LAG3 expression on T cells” value [2, 8] of the same substance?
A: The value was “induce upregulation”.

Q: And the “upregulation / induction of other immune checkpoints” value [2]?
A: Its value is “highest level”.

Q: What about the “upregulation / induction of other immune checkpoints” value ([2]; listed as anti-PD-1 antibody) of the same substance?
A: Its value is “upregulate”.

Q: And the “enhancement of tumor-lysate-induced T cell response” value [3]?
A: Its value is “enhanced to a greater extent”.

Q: What about the “proliferation of CD4+ Th cells” value [4, 9] of the same substance?
A: The value was “significant increase”.

Q: What about the “CD3+ T cell proliferation” value [4, 10] of the same substance?
A: Its value is “triggered”.

Q: What about the Treg proliferation [5] of the same substance?
A: Its Treg proliferation is “high induction; also recorded: highest level”.

Q: And the “expansion of Treg cells, single agent” value ([5]; BMMC, relapsed/refractory MM (N=3), FIG. 5C)?
A: The value was “significant (*p<0.05) expansion”.

Q: What does the source list for “anti-LAG3: Clinical grade checkpoint inhibitor, anti-LAG3 antibody Relatlimab, provided by Bristol-Myers Squibb”?
A: T cell proliferation [6]: significantly (*p<0.05) higher; proliferation of total CD8+ T cells and Central Memory, Effector Memory, CD28+ and CD38+ CTL subsets [1]: significantly increase; also recorded: enhanced proliferation; upregulation of PD1 and LAG3 expression on T cells [2, 8]: induce upregulation; upregulation / induction of other immune checkpoints [2]: lowest level; enhancement of tumor-lysate-induced T cell response [3]: enhanced to a greater extent; T cell proliferation ([3]; mixture of ten MM cell lines as irradiated whole cells or tumor lysates, vs other immune modulators): significantly higher; proliferation of CD4+ Th cells [4, 9]: significant increase; also recorded: highest proliferation; proliferation of CD8+ Tc cells [4, 9]: increased; also recorded: highest proliferation; CD3+ T cell proliferation [4, 10]: triggered; effector T cell proliferation ([4]; among clinical grade checkpoint inhibitors and immune agonists evaluated (discussion)): most robust; T cell responses in BMMC/PBMC from MM patients compared with healthy donors ([4]; discussion): significantly increased; CD107a degranulation (U266 MM cells): highest anti-tumor activities; IFN-γ production (U266 MM cells): highest anti-tumor activities; impact of treatment on G-type MDSC and Tregs ([5]; BM milieu of MM patients (discussion)): low; Treg proliferation [5]: lowest induction; also recorded: lowest level

Q: Which results are given for “Anti-GAL3 antibody (BD, Clone B2C10; Cat Nos.: 565676-565678, and 565682)”?
A: proliferation of CD4+Th cells in newly diagnosed MM patient BMMC, Patient #1 [7]: 13%; proliferation of CD4+Th cells in newly diagnosed MM patient BMMC, Patient #2 [7]: 9%; proliferation of CD8+Tc cells in newly diagnosed MM patient BMMC, Patient #1 [7]: 45%; proliferation of CD8+Tc cells in newly diagnosed MM patient BMMC, Patient #2 [7]: 38%

From patent US20240285740A1, “COMPOSITIONS AND METHODS FOR TREATING CANCER” (Dana-Farber Cancer Institute, Inc., priority 2021, published 2024)
